{
  "source": "patent US20240316144A1",
  "about": "“PHARMACEUTICAL COMPOSITION AND METHOD FOR INHIBITING ANGIOGENESIS” (ZIH YUAN TANG Biotechnology Co, Ltd., priority 2023, published 2024)",
  "key": {"[1]": {"system": "laser-induced angiogenesis", "assay": "Fundus fluorescein angiography (FFA) of laser-induced choroidal neovascularization in mice, vitreous injection", "assay_type": "in vivo, C57BL/6 mice", "settings": "for angiogenesis index (relative average fluorescence leakage ratio vs Day 0): vitreous injection, mean±S.E.M.; for FFA quantified values, difference to other groups: Eylea 40 μg/eye/μL, p<0.01 (FIG. 2D)", "method": "(§1) Beauvericin (BEA), named GYT088 in this trail, was supplied by Shiyuantang Biotechnology Co. 5 mg of BEA (molecular weight 783.96) was dissolved in DMSO at a stock concentration of 50 mM, and then diluted to 100 μM with saline. Before injection, the sample was diluted to 1.6, 3.2, and 6.4 μM in saline, and then administered to the low, medium, and high-dose groups, which were equivalent to 1.28, 2.56, and 5.12 ng/eye, respectively, based on a vitreous volume of 4 μl in mice (wherein the injection volume is 1 μl); converted to the human doses of 1.28, 2.56, 5.12 μg/eye as the low, medium and high dose levels, respectively, based on a vitreous volume of 4-4.5 ml in human.\n(§2) Male C57BL/6 mice from BioLASCO Taiwan CO., Ltd. at 7-8 weeks of age, with an average body weight of 17-20 g, were used in this study. The mice were housed in the Animal Room of the National Taipei Medical University for more than 5 days before the start of the experiment. The incubation temperature was set at 23±1° C., the humidity was set at 39˜43%, and the automated light control system maintained 12 hours of light and 12 hours of darkness. The feed was Rodent diet 5001 (Purina, MO, USA) and drinking water was supplied indefinitely.\n(§3) After the adaptation period, the retina was cauterized with laser light (day 0), and the degree of retinal damage was confirmed by fundus photography (FP), fluorescein fundus angiography (FFA), and frequency-domain optical […] (SD-OCT) on the same day (FIG. 1). The mice were randomly divided into five groups and given vitreous injections of the corresponding drugs, including (1) control group, (2) positive control group: Eylea (40 μg/eye/μL), (3-5) GYT088 treatment groups at low-dose (1.28 ng/eye), medium-dose (2.56 ng/eye), and high-dose ([…]). Five mice in each group were clinically observed daily, and retinal injury repair was examined at Day 7 and Day 14.\nMice were deeply anesthetized and pupils were dilated. A Micron III retinal imaging microscope (Phoenix, San Ramon, CA, USA) was used to adjust the focal length, and the central socket of the mice was placed in the center of the fundus lens to capture fundus photography (FP), and then 10% sodium fluorescein solution was injected intraperitoneally, and retinal angiography was performed with a 520 nm filter to capture continuous images for analysis. After the administration of drugs, the FP, FFA, and SD-OCT results were observed once a week at Day 0 and recorded until Day 14. Sharp images were selected for analysis and imported into […] using ImageJ, and the software automatically quantified the pixel value and area of the fundus region by removing the background values. Due to differences in individual retinal structures, post-laser wound healing varies and overexposure of signals in the area may occur. If fluorescence leakage occurs outside of the location of direct laser damage, it is considered to be a phenomenon of fundus neovascularization. Therefore, the quantification was performed by randomly selecting three fixed areas of the fluorescence leakage area that were not laser-damaged areas."}, "[2]": {"system": "retinal sublayer structure", "assay": "SD-OCT damage score of the retinal sublayer structure after laser injury in mice, vitreous injection", "assay_type": "in vivo, C57BL/6 mice", "settings": "for SD-OCT quantified values, difference to other groups: p<0.01 (FIG. 3D)", "method": "as §1, §2, §3\nThe OCT (Phoenix Research Laboratories, San Ramon, CA) imaging system used in this experiment is based on the principle of frequency-domain optical homodyne tomography. The computerized tomography (CT) scan was divided into three layers: the first layer was from the nerve fiber layer (NFL) to the inner nuclear layer (INL), the second layer was from the INL to the inner segment/outer segment (IS/OS), and the third layer was from the IS/OS to the retinal pigment epithelium (RPE). The damage was scored according to the retinal sublayer structure in a double-blind trail, and the mean value of the scores was taken as the index value of the damage after each score was made by 3 persons."}},
  "data": [
    {"molecule": "CC(C)[C@H]1OC(=O)[C@H](Cc2ccccc2)N(C)C(=O)[C@@H](C(C)C)OC(=O)[C@H](Cc2ccccc2)N(C)C(=O)[C@@H](C(C)C)OC(=O)[C@H](Cc2ccccc2)N(C)C1=O", "note": "[GYT088, beauvericin]", "values": [
      {"measurement": "angiogenesis index (relative average fluorescence leakage ratio vs Day 0)", "setting": "[1]; Day 7, high-dose 5.12 ng/eye, p<0.05", "result": "1.53±0.17", "unit": "times"},
      {"measurement": "angiogenesis index (relative average fluorescence leakage ratio vs Day 0)", "setting": "[1]; Day 7, low-dose 1.28 ng/eye", "result": "1.92±0.21", "unit": "times"},
      {"measurement": "angiogenesis index (relative average fluorescence leakage ratio vs Day 0)", "setting": "[1]; Day 7, medium-dose 2.56 ng/eye", "result": "1.59±0.22", "unit": "times"},
      {"measurement": "angiogenesis index (relative average fluorescence leakage ratio vs Day 0)", "setting": "[1]; Day 14, high-dose 5.12 ng/eye, p<0.01", "result": "1.63±0.16", "unit": "times"},
      {"measurement": "angiogenesis index (relative average fluorescence leakage ratio vs Day 0)", "setting": "[1]; Day 14, low-dose 1.28 ng/eye", "result": "2.46±0.18", "unit": "times"},
      {"measurement": "angiogenesis index (relative average fluorescence leakage ratio vs Day 0)", "setting": "[1]; Day 14, medium-dose 2.56 ng/eye, p<0.01", "result": "1.79±0.17", "unit": "times"},
      {"measurement": "damage score compared with control group", "setting": "[2]; Day 14, high-dose 5.12 ng/eye, vitreous injection", "result": "significantly lower than control group"},
      {"measurement": "SD-OCT quantified values, difference to other groups", "setting": "[2]; Day 14, low-dose 1.28 ng/eye", "result": "significant difference"},
      {"measurement": "SD-OCT quantified values, difference to other groups", "setting": "[2]; Day 14, mid-dose 2.56 ng/eye", "result": "significant difference"}
    ]},
    {"molecule": "Eylea: positive control group: Eylea (40 μg/eye/μL), vitreous injection [reference compound]", "values": [
      {"measurement": "FFA quantified values, difference to other groups", "setting": "[1]; Day 7", "result": "significant difference"},
      {"measurement": "FFA quantified values, difference to other groups", "setting": "[1]; Day 14", "result": "significant difference"},
      {"measurement": "damage score (scale 0-4)", "setting": "[2]; Day 7, Eylea 40 μg/eye/μL, vitreous injection, control 1.38±0.17", "result": "0.80±0.13"},
      {"measurement": "SD-OCT quantified values, difference to other groups", "setting": "[2]; Day 14, Eylea 40 μg/eye/μL", "result": "significant difference"}
    ]}
  ]
}
